The source of these data is PubChem BioAssay (NCI).

Values joined by “and” are separate entries in the source; they are usually repeats but may differ in a detail not shown here. Identical values can stand only once.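 Five concentrations, 48 hours, 96-well plates. Here, GI50 denotes the concentration required for 50% inhibition of growth. TGI denotes the concentration required for complete inhibition of growth.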

Holding throughout (assay): NCI tumour cell line growth inhibition, 48 h
Assay [1] has as its system NCI-H226 lung.
Assay [2] has as its system RXF 393 renal.
In assay [3] the test system is M14 melanoma.
The test system of assay [4] is IGROV1 ovarian.
In assay [5] the test system is HL-60(TB) leukemia.
For assay [6], the system named is HT29 colon.
Assay [7] relates to HOP-92 NSCLC.
The test system of assay [8] is KM12 colon.
Assay [9] concerns SN12C renal.
Assay [10] concerns OVCAR-5 ovarian.

For the compound `COc1ccc(OC)c(SC(CC(=O)c2ccccc2)c2ccccc2)c1` (centres undefined), the TGI in assay [1] was 31.9 µM; in [2] it was 31.1 µM; in assay [3], 31 µM; in assay [4], 23.1 µM; in assay [5], more than 100 µM; in assay [6] it was 35.8 µM. In addition, the TGI in assay [7] was more than 100 µM; in [8], 15.2 µM; in assay [9], 40.6 µM; in assay [10], 33.5 µM.

On to `C/C(=N\Nc1nc2ccccc2n1C)c1cc2ccccc2cn1`, for which the TGI in assay [1] was determined as 2.22 µM; in assay [2] it was 7.7 µM; in assay [3], 2.81 µM; in assay [4], 0.423 µM; in [5] it was 1.41 µM; in assay [6], 3.54 µM. The TGI worked out at 3.86 µM in assay [7], 16.9 µM in assay [8], 3.29 µM in [9] and 21.6 µM in assay [10].

With `O=C(c1cccs1)N1CCN(C(=O)c2cccs2)C1=S`, the TGI in [1] turned out to be 34.7 µM; in assay [2] it was 10.5 µM; in assay [3], 19 µM; in assay [4] it was 19.6 µM; in assay [5], 5.2 µM; in [6] it was 21 µM. Further, the TGI in [7] is 20.7 µM; in [8] it was 12.4 µM; in assay [9], 10.1 µM; in [10], 30.3 µM.

With `COc1ccc2[nH]c(O)c(/C=c3/cc4c(c(-c5ccc(F)c(OC)c5)n3)=Nc3ccccc3-4)c2c1`, the GI50 was 16.4 µM in [1]; 1.53 µM in [2]; 2000 nM in assay [3]; 4.41 µM in [4]; 14.4 µM in [5]; 2.03 µM in assay [6]. Moreover, the GI50 in assay [7] is 1.5 µM; in [8], 2.58 µM; in assay [9] it was 12.9 µM; in [10], 3.56 µM. In addition, the TGI in assay [1] is 33.1 µM; in assay [2] it was 3.01 µM; in assay [3], 4.15 µM; in [4], 17.6 µM; in assay [5], 35.1 µM; in assay [6], 4 µM. Also, the TGI in [7] amounted to 6.62 µM; in [8], 7.3 µM; in [9], 30.5 µM; in [10], 10.8 µM.

In the case of `C#CCn1c(=O)c(C)cn(/C(=C\C(=O)OCC)C(=O)OCC)c1=O`, the TGI in assay [1] is 36.1 µM; in assay [2], 4.49 µM; in assay [3] it was 11.3 µM; in assay [4], 15.3 µM; in [5], more than 100 µM; in [6] it was 4.03 µM. The TGI in assay [7] came out at 5.17 µM; in [8], 53.6 µM; in [9], 33.9 µM; in assay [10], 23.9 µM.

For the compound `O=C1CC(=O)n2cnc3cccc(c32)N1`, the TGI in assay [1], in [2], in assay [3], in assay [4], in [5] and in assay [6] was more than 100 µM throughout. For the same compound, the TGI in assay [7], in assay [8], in [9] and in assay [10] was more than 100 µM each time.

`CN=C(/N=c1\ssc(=NC)n1C)N(C)C`: the TGI in assay [1], in assay [2], in [3], in [4], in [5] and in [6] was more than 100 µM throughout. The TGI in assay [7], in [8], in [9] and in assay [10] was more than 100 µM each time.

Turning to `CC1=C2C(=CO[C@H](C)[C@H]2C)C(=O)C(C(=O)O)=C1O`, the GI50 is 18.4 µM in assay [1]; 21.9 µM in [2]; 25.3 µM in assay [5]; 18.3 µM in assay [6]; 16.1 µM in assay [7]; 19.2 µM in [8]. For the same compound, the GI50 in [9] is 9.07 µM; in [10], 29.5 µM. For the same compound, the TGI in assay [1] is 59.9 µM and 47.4 µM; in assay [2], 35.8 µM and 48.4 µM; in [3], 60.9 µM; in assay [4], 69.6 µM and 49.4 µM; in [5], 59 µM and 25.7 µM; in assay [6], 63.9 µM and 88.9 µM. Besides, the TGI in assay [7] is 72.6 µM and 46.3 µM; in [8], 87.5 µM and 48.8 µM; in [9] it was 54.8 µM and 26.2 µM; in assay [10], 73 µM and 128 µM.

Consider `COc1cc(C2c3cc4c(cc3C3OC[C@@H]2C3CO)OCO4)cc(OC)c1OC` (some centres undefined), for which the TGI in [1] was 47 µM; in assay [2] it was more than 100 µM; in assay [3] it was more than 100 µM; in assay [4], more than 100 µM; in assay [5], 18.7 µM; in assay [6], more than 100 µM. In addition, the TGI in assay [7], in [8], in assay [9] and in [10] was more than 100 µM each time. Moreover, in assay [9], the GI50 was 59.4 µM.
